Source: US8927545B2, “Inhibiting Eph B-3 kinase” (Duke University, priority 2009, dated 2015)
Entries after “also recorded” stand apart in the source; their conditions may differ.

Tests used:
[1] = biological target: T1, recombinant human EphB3 kinase (Homo sapiens, UniProt P54753); test: IC50 for inhibiting EphB3 phosphorylation of the BTK peptide (33P radiometric assay, assay of Examples 1-6); assay type: biochemical; details: for EphB3 tyrosine kinase inhibitor activity (in words): inhibition of EphB3 phosphorylation of the BTK peptide; for IC50: inhibiting EphB3 phosphorylation of the BTK peptide (SEQ ID NO: 4)
T1 sequence (P54753 633-896 limits assumed): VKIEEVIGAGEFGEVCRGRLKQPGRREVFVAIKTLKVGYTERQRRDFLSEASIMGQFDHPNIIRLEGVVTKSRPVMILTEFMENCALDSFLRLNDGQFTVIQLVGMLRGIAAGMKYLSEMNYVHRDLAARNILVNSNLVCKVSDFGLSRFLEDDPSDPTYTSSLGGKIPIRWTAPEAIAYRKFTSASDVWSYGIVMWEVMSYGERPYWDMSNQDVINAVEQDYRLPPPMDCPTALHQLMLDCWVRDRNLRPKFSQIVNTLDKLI

[2] = tested on: panel of tumor cell lines; test: Dose-response against a panel of tumor cell lines (SRB, % growth); assay type: cell-based, human; details: leukemia, non-small cell lung, colon, CNS, melanoma, ovarian, renal, prostate, breast cancer lines; FIG. 8(A)-(I)
Experimental: The y-axis depicts the % growth and the x-axis depicts the compound concentration. The legends below each graph refer to the different tumor cell lines used. […]
The human tumor cell lines of the cancer screening panel were grown in RPMI 1640 medium containing 5% fetal bovine serum and 2 mM L-glutamine. For a typical screening experiment, cells were inoculated into 96 well microtiter plates in 100 μL at plating densities ranging from 5,000 to 40,000 cells/well depending on the doubling time of individual cell lines. After cell inoculation, the microtiter plates were incubated at 37° C., 5% CO2, 95% air and 100% relative humidity for 24 hours prior to addition of experimental drugs. […]
Following drug addition, the plates were incubated for an additional 48 h at 37° C., 5% CO2, 95% air, and 100% relative humidity. […] Bound stain was subsequently solubilized with 10 mM trizma base, and the absorbance is read on an automated plate reader at a wavelength of 515 nm. […] Using the seven absorbance measurements [time zero, (Tz), control growth, (C), and test growth in the presence of drug at the five concentration levels (Ti)], the percentage growth was calculated at each of the drug concentrations levels. Percentage growth inhibition was calculated as: [(Ti−Tz)/(C−Tz)]×100 for concentrations for which Ti>/=Tz [(Ti−Tz)/Tz]×100 for concentrations for which Ti<Tz. […]

[3] = tested on: Animal Model for Stroke (ischemia); test: Neurological score / neurological deficit after ischemic injury; details: rated between 0 (unaffected) and 4 (worst); different doses; FIG. 7(B)
[4] = tested on: Animal Model for Stroke (ischemia); test: Infarct volume in animal model for stroke (2 h artery occlusion, compound ICV, TTC staining); assay type: in vivo, Sprague-Dawley rats; details: different doses administered ICV; FIG. 6(E), FIG. 7(A)
[5] = biological target: T2, recombinant EphB3 (Homo sapiens, UniProt P54753); details: published data, scintillation proximity assay, different substrate; cited from earlier work
T2 sequence (P54753 34-998): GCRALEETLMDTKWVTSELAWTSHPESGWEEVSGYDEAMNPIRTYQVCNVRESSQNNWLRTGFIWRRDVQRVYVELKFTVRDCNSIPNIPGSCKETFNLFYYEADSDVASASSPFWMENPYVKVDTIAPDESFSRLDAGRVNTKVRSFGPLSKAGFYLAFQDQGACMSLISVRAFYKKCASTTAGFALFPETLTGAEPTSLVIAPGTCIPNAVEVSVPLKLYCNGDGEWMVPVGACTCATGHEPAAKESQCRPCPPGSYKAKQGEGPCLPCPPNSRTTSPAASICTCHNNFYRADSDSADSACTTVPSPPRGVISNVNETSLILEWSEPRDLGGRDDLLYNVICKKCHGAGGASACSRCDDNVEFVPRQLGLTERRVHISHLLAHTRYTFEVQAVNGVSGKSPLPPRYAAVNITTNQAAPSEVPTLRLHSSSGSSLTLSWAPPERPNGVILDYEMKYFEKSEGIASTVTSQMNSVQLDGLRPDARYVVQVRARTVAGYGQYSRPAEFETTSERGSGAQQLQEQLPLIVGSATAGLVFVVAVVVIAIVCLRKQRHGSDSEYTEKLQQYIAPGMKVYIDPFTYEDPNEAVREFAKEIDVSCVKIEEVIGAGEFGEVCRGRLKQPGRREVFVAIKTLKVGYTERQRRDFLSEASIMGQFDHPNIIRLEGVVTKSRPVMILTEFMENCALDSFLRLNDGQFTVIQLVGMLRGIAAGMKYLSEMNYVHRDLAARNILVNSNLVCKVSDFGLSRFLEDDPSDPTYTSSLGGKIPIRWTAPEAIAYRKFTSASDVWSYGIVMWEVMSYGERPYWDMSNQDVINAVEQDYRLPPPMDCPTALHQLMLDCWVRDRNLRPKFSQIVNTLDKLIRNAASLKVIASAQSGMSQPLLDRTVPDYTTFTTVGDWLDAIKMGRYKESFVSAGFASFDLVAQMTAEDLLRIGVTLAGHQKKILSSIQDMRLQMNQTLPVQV

[6] = biological target: T3, recombinant human EphB3 kinase (Homo sapiens, UniProt P54753); test: HTRF assay of BTK substrate phosphorylation by EphB3 kinase (known kinase inhibitors)
T3 sequence (P54753 585-998): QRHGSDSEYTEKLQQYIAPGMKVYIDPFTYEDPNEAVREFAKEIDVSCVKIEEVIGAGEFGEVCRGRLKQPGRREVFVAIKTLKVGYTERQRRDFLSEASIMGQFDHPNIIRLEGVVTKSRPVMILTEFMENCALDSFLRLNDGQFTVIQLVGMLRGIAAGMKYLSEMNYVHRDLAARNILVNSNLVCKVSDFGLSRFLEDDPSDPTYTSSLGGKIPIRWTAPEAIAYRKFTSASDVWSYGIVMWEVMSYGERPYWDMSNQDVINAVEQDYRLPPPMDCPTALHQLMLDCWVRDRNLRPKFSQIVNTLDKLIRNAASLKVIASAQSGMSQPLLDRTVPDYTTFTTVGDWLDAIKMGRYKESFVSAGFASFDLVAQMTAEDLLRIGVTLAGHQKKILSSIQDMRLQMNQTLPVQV

[7] = Table 1 pyrazolo[1,5-a]pyridine compounds

| Structure (SMILES) | EphB3 tyrosine kinase inhibitor activity (in words) [1] | IC50 [1, 7] [µM] | other results |
| --- | --- | --- | --- |
| O=C(Nc1ccccc1Cl)c1cnn2ccccc12 [Compound 1] | showed EphB3 tyrosine kinase inhibitor activity |  |  |
| CN(C(=O)c1cnn2ccccc12)c1ccccc1Cl [Compound 187597] | inactive | > 20 |  |
| O=C(Nc1ccccc1)c1cnn2ccccc12 [Compound 187598] | little or no inhibition | > 20 |  |
| O=C(Nc1cccc(Cl)c1)c1cnn2ccccc12 [Compound 187600] | little or no inhibition | > 20 |  |
| O=C(Nc1ccc(Cl)cc1)c1cnn2ccccc12 [Compound 187601] | little or no inhibition | > 20 |  |
| O=C(NCc1ccccc1Cl)c1cnn2ccccc12 [Compound 187604] | little or no inhibition; also recorded: inactive | > 20 |  |
| COc1ccccc1NC(=O)c1cnn2ccccc12 [Compound 187605] | little or no inhibition | > 20 |  |
| Cn1cc(C(=O)Nc2ccccc2Cl)c2ccccc21 [Compound 187609] |  |  | IC50 ([1]; Table 2 candidate compounds): > 20 µM |
| O=C(Nc1ccccc1Cl)c1ccnc2ccccc12 [Compound 187611] |  |  | IC50 ([1]; Table 2 candidate compounds): > 20 µM |
| O=C(Nc1ccccc1Cl)c1noc2ccccc12 [Compound 193671] |  |  | IC50 ([1]; Table 2 candidate compounds): > 20 µM |
| O=C(Nc1ccccc1Cl)c1cnn2cccnc12 [Compound 193695] |  |  | IC50 ([1]; Table 2 candidate compounds): > 20 µM |
| O=C(Nc1ccccc1Cl)c1cnn2ncccc12 [Compound 193697] |  |  | IC50 ([1]; Table 2 candidate compounds): > 20 µM |
| O=C(Nc1ccccc1Cl)c1cnc2ccc(Br)cn12 [Compound 209925, 6-bromo-N-(2-chlorophenyl)imidazo[1,2-a]pyridine-3-carboxamide] |  |  | IC50 ([1]; Table 3 imidazo[1,2-a]pyridine compounds): < 0.2 µM |
| O=C(Nc1ccccc1Cl)c1cnc2ccc(C3CCNCC3)cn12 [Compound 211904, N-(2-chlorophenyl)-6-(piperidin-4-yl)imidazo[1,2-a]pyridine-3-carboxamide] |  |  | % growth of tumor cell lines [2]: inhibited; Neurological deficit [3]: dose-dependent neuroprotection in behavior; Infarct volume at different compound doses [4]: dose-dependent decrease in infarct volume |
| CC(C)(C)n1nc(-c2ccc(Cl)cc2)c2c(N)ncnc21 [PP2] |  |  | IC50 [5]: 0.8 µM; IC50 ([6]; 12.5 nM EphB3, 30 min preincubation at RT, […] ATP, 600 nM BTK for 1 hr): 1.7 µM; inhibition ([6]; at 10 μM, HTS positive control): 80% |
| CN[C@@H]1C[C@H]2O[C@@](C)([C@@H]1OC)n1c3ccccc3c3c4c(c5c6ccccc6n2c5c31)C(=O)NC4 [Staurosporine, staurosporine] |  |  | inhibition at 100 µM ([6]; read-out: inhibition of phosphorylation): 50% |

The next lines start with results.

| EphB3 tyrosine kinase inhibitor activity (in words) [1] | IC50 [1, 7] [µM] | Structure (SMILES) | other results |
| --- | --- | --- | --- |
|  | > 20 | Cc1cccc2c(C(=O)Nc3ccccc3Cl)cnn12 [Compound 193694] |  |
|  | < 0.3 | O=C(Nc1ccccc1Cl)c1cnn2ccc(N3CCCC3)cc12 [Compound 194727, N-(2-chlorophenyl)-5-(pyrrolidin-1-yl)pyrazolo[1,5-a]pyridine-3-carboxamide] |  |
